Results: the supplement of paper PMC10307832

Legend:
Experiment in all cases: relative viability (nuclei count vs DMSO), 5 days (fraction); higher = more cells survive
[1] = compound: COc1cc(Nc2ncc(F)c(Nc3ccc4c(n3)NC(=O)C(C)(C)O4)n2)cc(OC)c1OC [R406] + CC1(C)CCC(c2ccc(Cl)cc2)=C(CN2CCN(c3ccc(C(=O)NS(=O)(=O)c4ccc(N[C@H](CCN5CCOCC5)CSc5ccccc5)c(S(=O)(=O)C(F)(F)F)c4)cc3)CC2)C1 [Navitoclax] (partner 0.5 µM)
Outline: (§1)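 Lung cancer cell lines in 1536-well plates were dosed by pin tool the day after seeding, either with one drug alone or with a fixed anchor-drug dose plus five library-drug doses (not always all listed) in √10 steps. After 5 days, cells were fixed and their nuclei stained in one step (final 0.05% Triton X-100, 1% formaldehyde, 1 ug/ml Hoechst), then counted on 4× images. Relative viability is the nuclei count in treated wells divided by that in vehicle wells. Values are medians of duplicate plates.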

[2] = compound: COc1cc(Nc2ncc(F)c(Nc3ccc4c(n3)NC(=O)C(C)(C)O4)n2)cc(OC)c1OC [R406] + CS(=O)(=O)CCNCc1ccc(-c2ccc3ncnc(Nc4ccc(OCc5cccc(F)c5)c(Cl)c4)c3c2)o1 [Lapatinib] (partner 2 µM)
Outline: as §1

[3] = compound: O=C(/C=C/c1cccnc1)NCCCCC1CCN(C(=O)c2ccccc2)CC1 [Daporinad] + CCNC(=O)c1noc(-c2cc(C(C)C)c(O)cc2O)c1-c1ccc(CN2CCOCC2)cc1 [Luminespib] (partner 0.01 µM)
Outline: as §1

[4] = compound: O=C(/C=C/c1cccnc1)NCCCCC1CCN(C(=O)c2ccccc2)CC1 [Daporinad] + Cc1nc(Nc2ncc(C(=O)Nc3c(C)cccc3Cl)s2)cc(N2CCN(CCO)CC2)n1 [Dasatinib] (partner 0.075 µM)
Outline: as §1

| Cell Line | relative viability ([1]; first compound 0.08 µM) | relative viability ([1]; first compound 0.253 µM) | relative viability ([1]; first compound 0.8 µM) | relative viability ([1]; first compound 2.53 µM) | relative viability ([1]; first compound 8 µM) | relative viability ([2]; first compound 0.08 µM) | relative viability ([2]; first compound 0.253 µM) | relative viability ([2]; first compound 0.8 µM) | relative viability ([2]; first compound 2.53 µM) | relative viability ([2]; first compound 8 µM) | relative viability ([3]; first compound 0.0005 µM) | relative viability ([3]; first compound 0.001581 µM) | relative viability ([3]; first compound 0.005 µM) | relative viability ([3]; first compound 0.01581 µM) | relative viability ([4]; first compound 0.0005 µM) | relative viability ([4]; first compound 0.001581 µM) | relative viability ([4]; first compound 0.005 µM) | relative viability ([4]; first compound 0.01581 µM) |
| --- | --- | --- | --- | --- | --- | --- | --- | --- | --- | --- | --- | --- | --- | --- | --- | --- | --- | --- |
| HARA | 1.05 | 1.14 | 1.12 | 1.19 | 0.453 | 0.743 | 0.672 | 0.775 | 0.55 | 0.157 | 0.761 | 0.621 | 0.837 | 0.175 | 0.3 | 0.285 | 0.284 | 0.339 |
| PC-14 | 1.01 | 1.05 | 1.04 | 0.984 | 0.836 | 0.302 | 0.442 | 0.382 | 0.3 | 0.294 | – | 0.106 | 0.196 | 0.196 | 0.276 | 0.315 | 0.293 | 0.363 |
| NCI-H1755 | 0.983 | 1.04 | 0.982 | 0.573 | 0.483 | 1.03 | 1.07 | 1.04 | 0.678 | 0.329 | 0.31 | 0.381 | 0.541 | 0.488 | 0.414 | 0.435 | 0.388 | 0.408 |
| NCI-H322M | 1.13 | 1.23 | 1.28 | 0.862 | 0.534 | 0.543 | 0.51 | 0.647 | 0.335 | 0.343 | 0.997 | 0.97 | 0.853 | 0.608 | 0.272 | 0.266 | 0.259 | 0.259 |
| NCI-H3122 | 1.06 | 0.971 | 1.02 | 1.02 | 0.82 | 1.01 | 1.06 | 0.981 | 0.969 | 0.934 | 0.0688 | 0.0544 | 0.0785 | 0.0818 | 0.664 | 0.73 | 0.807 | 0.59 |
| COR-L23 | 0.951 | 1.04 | 1.1 | 0.836 | 0.451 | 1.02 | 1.09 | 1.49 | 1.05 | 0.47 | 0.615 | 0.696 | 0.734 | 0.199 | 0.541 | 0.575 | 0.38 | 0.183 |
| NCI-H2087 | 1.03 | 0.882 | 1.05 | 1.06 | 0.694 | 0.826 | 1.26 | 1.36 | 0.254 | 0.966 | 0.178 | 0.177 | 0.154 | 0.159 | 0.787 | 1.17 | 0.934 | 0.923 |
| LC-2-ad | 0.514 | 0.479 | 0.453 | 0.18 | 0.101 | 0.986 | 0.847 | 1.03 | 0.112 | 0.0913 | 0.99 | 1.11 | 1.19 | 0.795 | 0.622 | 0.539 | 0.68 | 0.765 |
| NCI-H1915 | 0.769 | 0.799 | 0.789 | 0.707 | 0.662 | 0.991 | 1.09 | 1.03 | 0.806 | 0.778 | 0.893 | 0.703 | 0.786 | 0.824 | 0.299 | 0.331 | 0.399 | 0.337 |
